# Measured values: patent US9315546B2, “Growth hormone secretatogue receptor antagonists and uses thereof” (The Administrators of the Tulane Educational Fund, priority 2010, dated 2016)
# Where a SMILES comes first, the peptide text is derived from it. Where no end group is shown, it is not given here. [ ]: non-standard residue; d: D form. The star is where a group is joined. d2Nal = N[C@H](Cc1ccc2ccccc2c1)C(=O)O; Octanoyl = CCCCCCCC(=O)*; Dap = NC[C@H](N)C(=O)O
# Key:
# [1] = test system: GHRH; assay: GH response to GHRH in rats; format: in vivo, rat; conditions: GHRH 5 μg i.v.
# [2] = target: T1, GHS-R 1a (Rattus norvegicus, UniProt O08725); assay: Spontaneous pulsatile GH secretion in free-moving adult male rats; format: in vivo
# T1 construct: free-moving rats were i.c.v. injected with either normal saline or GHS-A (5 μg); from tissue; host or cells: whole animal (adult male Sprague Dawley rats)
# Method: Adult male Sprague Dawley rats (225-260 g) were purchased from Charles River Canada (St. Constant, Canada) and individually housed on a 12-h light, 12-h dark cycle (lights on, 0600-1800 h) in a temperature (22±1° C.)—and humidity-controlled room. Purina rat chow (Ralston Purina Co., St. Louis, Mo.) and tap water were available ad libitum.
# Chronic intracerebroventricular (i.c.v.) and intracardiac venous cannulas were implanted under sodium pentobarbital (50 mg/kg, i.p.) anesthesia using previously described techniques in (2) and (11). The placement of the icy cannulae was verified by both a positive drinking response to i.c.v. carbachol (100 ng/10 μl) injection on the day after surgery and methylene blue dye at the time of death. After surgery, the rats were placed directly in isolation test chambers with food and H2O freely available until body weight returned to preoperative levels (usually within 5-7 d). During this time the rats were handled daily to minimize any stress associated with handling on the day of the experiment. On the test day, food was removed 1.5 h before the start of sampling and was returned at the end.
# These time points were chosen because they correspond closely to the time of onset of the spontaneous GH secretory episodes, as previously documented in our laboratory (2, 4). Blood samples were withdrawn from 1000-1600 h, as described above; however, no blood sample was withdrawn 5 min after the injections.
# [3] = target: T2, Ghrelin/GHRP/GHS Receptor (Rattus norvegicus, UniProt O08725); assay: In vivo GH release in rat after i.v. peptide (serum GH by RIA)
# Method: For the in vivo assay of GH Release in rat, immature female Sprague Dawley rats were obtained from Charles River from Wilmington, Mass. After arrival they were housed at 25° C. with a 14:10 h light:dark cycle. Water and Purina rat chow were available at libitum. Pups were weaned at 21 days of age.
# Immature twenty six day old female Sprague Dawley rats, 3-6 rats per treatment dose, were pretreated with pentobarbital 20 minutes before iv injection of vehicle/peptide or peptide plus stimulator. Injection was made as a 0.1 ml solution. For the non-pentobarbital treated rat assay, peptides were administered iv into the tail vein of conscious rats. All animals were sacrificed by guillotine after iv peptide or vehicle. Trunk blood was collected at +10-15 minutes […], allowed to clot, centrifuged and serum stored until assayed for GH levels by RIA. The GH RIA reagents were distributed by the NIH. Control data was collected from rats treated with only the corresponding vehicle in the absence of peptide or stimulator. Control stimulated data was collected from rats treated with stimulator alone in the absence of any peptide.
# [4] = target: T1, GHS-R 1a; assay: Ghrelin-induced GH release in free-moving adult male rats; format: in vivo; conditions: for GH response to i.c.v. ghrelin: 5 μg antagonist i.c.v. 15 min before 500 ng ghrelin i.c.v.
# Method: Adult male Sprague Dawley rats (225-260 g) were purchased from Charles River Canada (St. Constant, Canada) and individually housed on a 12-h light, 12-h dark cycle (lights on, 0600-1800 h) in a temperature (22±1° C.)—and humidity-controlled room. Purina rat chow (Ralston Purina Co., St. Louis, Mo.) and tap water were available ad libitum. Chronic intracerebroventricular (i.c.v.) and intracardiac venous cannulas were implanted under sodium pentobarbital (50 mg/kg, i.p.) anesthesia using previously described techniques in (2) and (11). […] During this time the rats were handled daily to minimize any stress associated with handling on the day of the experiment. On the test day, food was removed 1.5 h before the start of sampling and was returned at the end. […] Both the human ghrelin peptide (provided by Dr. K. Chang, Phoenix Pharmaceuticals, Inc., Belmont, Calif.) and the GHS-A were diluted in normal saline just before use. Blood samples (0.35 ml) were withdrawn every 15 min over a 6-h sampling period (1000-1600 h) from all animals. […] All blood samples were immediately centrifuged, and plasma was separated and stored at −20° C. for subsequent assay of GH. To avoid hemodynamic disturbance, the red blood cells were resuspended in normal saline and returned to the animal after removal of the next blood sample. […] Blood samples were withdrawn from 1000-1600 h, as described above.
# [5] = target: T1, GHS-R 1a; assay: Spontaneous and ghrelin-induced food intake in rats; format: in vivo
# Method: The effects of the GHS-A on both spontaneous and ghrelin-induced food intake and body weight gain were investigated. For the spontaneous experiments, the rats were fasted overnight (1600-1100 h next morning) and were i.c.v.-injected with either normal saline or GHS-A (5 μg) at 1100 h. Food intake was monitored on an hourly basis for 5 h after the initial injection (until 1600 h) and subsequently overnight (1600-0900 h next morning). A measured amount of rat chow pellets was placed in the cage every hour. Spillage was collected by placement of a diaper under the rat cages, and total food consumed for each period was calculated by subtracting uneaten food plus spillage from total given. Body weights were recorded daily at 0900 h. The latency to the onset of the first meal after the injection and the duration of that meal were also monitored.
# Food intake was monitored on an hourly basis as described above. In this experiment, food was removed 1.5 h before the start of the test.
# [6] = target: T2, Ghrelin/GHRP/GHS Receptor; assay: GH release from isolated pituitary glands, pituitary incubation method; format: cell-based
# Method: Hormonal activities were obtained from in vitro studies using pituitaries of 20 day old CD-1 strain Sprague Dawley female rats. Two pituitaries were incubated for a total of 4-6 hours. Medium was removed each hour for RIA of GH level and fresh medium was added again. After two one hour preincubation periods (P1-P2), the vehicle/peptides were added to two one hour incubations (I3-I4). Peptide activity was calculated as the change in the hormonal level (delta) between I3+I4 and P2. For antagonist activity, the incubation was continued for 2 additional hours (I5-I6) where both the peptide and a stimulator of GH secretion was added and the antagonist activity was calculated as the change in the hormonal level (delta) between I5+I6 and P2. The peptides were assayed in triplicate and the hormone was assayed in duplicate. Each value recorded represents the mean of 6. The GH RIA reagents were distributed by the NIH. Control data was collected from isolated pituitary glands treated with only the corresponding vehicle in the absence of peptide or stimulator. Control stimulated data was collected from isolated pituitary glands treated with stimulator alone in the absence of any peptide.
# [7] = target: T3, hypothalamic ghrelin receptor (Rattus norvegicus, UniProt O08725); assay: Food intake and body weight change after icv ghrelin analogs in adult male rats; format: in vivo; set-up: from tissue; host or cells: whole animal (adult male rats); conditions: ghrelin analog 10 μg icv; for body weight gain: change over 24 h; for (cumulative) food intake: monitored hourly over 5 h
# Method: (§1) In vivo effects were measured on spontaneous and ghrelin-stimulated GH secrtion over a 6-h sampling period, and food intake monitored hourly over a 5-h period and body weight change over 24 h.
# [8] = target: T4, GOAT (Homo sapiens, UniProt Q96T53); assay: Acyl Transferase activity of GOAT in vitro; format: biochemical
# T4 sequence (Q96T53 1-435): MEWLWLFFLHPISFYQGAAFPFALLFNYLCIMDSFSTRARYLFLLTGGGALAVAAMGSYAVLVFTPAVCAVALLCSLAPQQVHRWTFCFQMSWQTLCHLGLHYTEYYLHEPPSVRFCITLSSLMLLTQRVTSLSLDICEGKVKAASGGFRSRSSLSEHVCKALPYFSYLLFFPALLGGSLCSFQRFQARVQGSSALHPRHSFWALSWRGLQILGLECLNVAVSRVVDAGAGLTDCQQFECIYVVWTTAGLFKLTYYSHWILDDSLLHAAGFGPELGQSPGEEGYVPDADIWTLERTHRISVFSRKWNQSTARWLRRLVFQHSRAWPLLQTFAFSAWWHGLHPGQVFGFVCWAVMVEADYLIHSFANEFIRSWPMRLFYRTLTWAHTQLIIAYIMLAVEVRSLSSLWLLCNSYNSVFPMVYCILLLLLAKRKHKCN
# [9] = target: T3, hypothalamic ghrelin receptor; assay: Spontaneous and ghrelin-stimulated GH secretion after icv ghrelin analogs in adult male rats; format: in vivo; set-up: from tissue; host or cells: whole animal (adult male rats); conditions: for spontaneous growth hormone secretion / plasma GH levels: ghrelin analog 10 μg icv, 6-h sampling
# Method: as §1
# [10] = 5 μg i.c.v. before ghrelin 500 ng i.c.v.
# [11] = 5 μg i.c.v., overnight-fasted animals
# [12] = peptide antagonist 30 μg/ml + stimulator His-DTrp-Ala-Trp-DPhe-Lys-NH2 10 ng/ml
# [13] = listed as GMA{Dap^3Oct}ghrelinNH2 1-9
# [14] = listed as Gly-Met-Ala-Gly-Ser-(Dap-Oct)-Phe-Leu-Ser-Pro-Glu-His-NH2
# T3 sequence (O08725 whole entry): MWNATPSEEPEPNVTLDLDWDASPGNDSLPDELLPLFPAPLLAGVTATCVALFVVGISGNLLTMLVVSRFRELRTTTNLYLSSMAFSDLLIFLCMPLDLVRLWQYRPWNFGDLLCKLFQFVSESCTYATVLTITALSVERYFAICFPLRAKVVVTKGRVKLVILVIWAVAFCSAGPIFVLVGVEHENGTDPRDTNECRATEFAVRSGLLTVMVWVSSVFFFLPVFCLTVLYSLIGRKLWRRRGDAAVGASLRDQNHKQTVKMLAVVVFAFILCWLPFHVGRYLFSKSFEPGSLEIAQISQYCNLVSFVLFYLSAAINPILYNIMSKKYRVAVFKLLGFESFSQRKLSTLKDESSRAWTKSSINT
# T2 sequence (O08725 whole entry): as above
# T1 sequence (O08725 whole entry): as above
compound,measurement,setting,value
H[d2Nal][dK]W[dF]K-NH2 [4-His-DβNal-DLys-Trp-DPhe-Lys-NH2],GH response to GHRH,[1],did not significantly reduce
same,"1-h GH AUC's of spontaneous GH secretory episodes (1100 h, 1400 h) and overall 6-h GH AUC",[2]; 5 μg i.c.v.,significantly reduced
same,"GH peak frequency, interpeak interval and nadir (cluster analysis)",[2]; 5 μg i.c.v.,no significant effect
same,GH peak height (cluster analysis),[2]; 5 μg i.c.v.,significant suppression
same,amplitude of the spontaneous GH pulses,[2]; 5 μg i.c.v. 15 min before expected GH bursts,severely attenuated
same,Stimulated GH release,[3]; peptide antagonist 30 μg i.v. + stimulator 0.3 μg,733 ± 85 ng/mL
same,Stimulated GH release,[3]; peptide antagonist 100 μg i.v. + stimulator 1 μg,818 ± 269 ng/mL
same,GH response to i.c.v. ghrelin,[4],virtually obliterated
same,GH response to i.c.v. ghrelin,[4]; listed as GHS-A,abolished
same,reduction of GH AUC following i.c.v. ghrelin vs saline-pretreated controls,"[4]; 5 μg i.c.v. pretreatment, ghrelin 500 ng i.c.v.",15 fold
same,GH response to i.v. ghrelin,"[4]; 250 μg antagonist i.v. 15 min before 5 μg ghrelin i.v., listed as GHS-A",strongly blocked
same,reduction of GH AUC following i.v. ghrelin vs saline-pretreated controls,"[4]; 250 μg i.v. pretreatment, ghrelin 5 μg i.v.",5 fold
same,"cumulative food intake after ghrelin, up to 5 h",[5]; [10],significantly suppressed
same,"ghrelin-stimulated food intake, first hour after injections",[5]; [10],significantly inhibited
same,cumulative spontaneous food intake beyond the first hour,[5]; [11],not inhibited
same,"spontaneous food intake, first hour after injection",[5]; [11],significantly inhibited
DesaminoTyr-DTrp-Ser-Trp-DPhe-NH2 [10-DesaminoTyr-DTrp-Ser-Trp-DPhe-NH2],Stimulated GH release,[6]; [12],3258 ± 682 ng/mL
Y[dW][dW]FF-NH2 [12-Tyr-DTrp-DTrp-Phe-Phe-NH2],Stimulated GH release,[6]; [12],-167 ± 157 ng/mL
"CCCCCCCC(=O)NC[C@H](NC(=O)[C@H](CO)NC(=O)CNC(=O)[C@H](C)NC(=O)[C@H](CCSC)NC(=O)CN)C(=O)N[C@@H](Cc1ccccc1)C(=O)N[C@@H](CC(C)C)C(=O)N[C@@H](CO)C(=O)N1CCC[C@H]1C(=O)N[C@@H](CCC(=O)O)C(=O)N[C@@H](Cc1c[nH]cn1)C(N)=O [#3, Gly-Met-Ala-Gly-Ser-(Dap-Oct)-Phe-Leu-Ser-Pro-Glu-His-NH2] (H-GMAGS[Dap](Octanoyl)FLSPEH-NH2; N-terminus assumed)",body weight gain,[7]; [13],inhibits
same,body weight gain,[7]; listed as duodecapeptide,effective
same,(cumulative) food intake,[7],inhibited food intake
same,(cumulative) food intake,[7]; [13],inhibits
same,(cumulative) food intake,[7]; [14],reduced
same,(cumulative) food intake,[7]; listed as duodecapeptide,effective
same,inhibition of the Acyl Transferase activity of GOAT,[8],ineffective
same,decrease in mean plasma GH levels compared with controls,[9]; central administration,3-to-4 fold
same,spontaneous growth hormone secretion / plasma GH levels,[9],inhibited growth hormone secretion
same,spontaneous growth hormone secretion / plasma GH levels,[9]; listed as GMA duodecapeptide ghrelin analog,inhibitory activity
same,spontaneous growth hormone secretion / plasma GH levels,[9]; [14],inhibited
same,stimulatory action of ghrelin on GH release after pretreatment,[9]; pretreatment with analog,blocked
H[dW][dK]W[dF]K-NH2 [6-His-DTrp-DLys-Trp-DPhe-Lys-NH2],Stimulated GH release,[6]; peptide antagonist 1 μg/ml + stimulator His-DTrp-Ala-Trp-DPhe-Lys-NH2 10 ng/ml,324 ± 181 ng/mL
Gly-Met-Ala-Gly-Ser-(Dap-Palmityl)-Phe-Leu-Ser-Pro-Glu-His-NH2 (GMAGS[Dap(palmityl)]FLSPEH-NH2) [#6],(cumulative) food intake,[7],did not inhibit GH secretion or decreased food intake
same,spontaneous growth hormone secretion / plasma GH levels,[9],did not inhibit
Y[dW]AW[dF]-NH2 [reference compound],Stimulated Control GH release (stimulator *S alone),"[6]; Table 12, *S = Tyr-DTrp-Ala-Trp-DPhe-NH2 0.3 μg/ml",2218 ± 194 ng/mL
